Tests used:
[1] = biological target: T1, Adenosine receptor A2b (Homo sapiens) (UniProt P29275); test: Displacement of [3H]PSB-603 from human recombinant adenosine A2B receptor expressed in CHO cells at 1 uM by liquid scintillation counting analysis; assay type: cell-based
T1 sequence (whole entry): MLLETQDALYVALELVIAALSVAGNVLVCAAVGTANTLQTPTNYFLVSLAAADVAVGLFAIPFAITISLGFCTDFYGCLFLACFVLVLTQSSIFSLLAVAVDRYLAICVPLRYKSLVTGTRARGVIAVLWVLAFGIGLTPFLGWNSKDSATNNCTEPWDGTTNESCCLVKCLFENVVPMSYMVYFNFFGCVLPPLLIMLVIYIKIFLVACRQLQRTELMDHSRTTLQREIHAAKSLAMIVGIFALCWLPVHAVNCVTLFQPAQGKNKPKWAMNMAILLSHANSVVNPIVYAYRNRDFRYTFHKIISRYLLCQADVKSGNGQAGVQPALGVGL

Adenosine receptor A2a [2] = biological target: T2, Adenosine receptor A2a (Homo sapiens, UniProt P29274); test: Displacement of [3H]MSX-2 from human recombinant adenosine A2A receptor expressed in CHO cells by liquid scintillation counting analysis; assay type: cell-based
Adenosine receptor A2b = biological target: T3, Adenosine receptor A2b (Homo sapiens, UniProt P29275); test: Displacement of [3H]PSB-603 from human recombinant adenosine A2B receptor expressed in CHO cells by liquid scintillation counting analysis; assay type: cell-based
T3 sequence (P29275 whole entry): T1 sequence (whole entry)

Adenosine receptor A2a [3] = biological target: T2, Adenosine receptor A2a; test: Displacement of [3H]MSX-2 from human recombinant adenosine A2A receptor expressed in CHO cells at 1 uM by liquid scintillation counting analysis; assay type: cell-based
[4] = biological target: T4, Adenosine receptor A1 (Homo sapiens) (UniProt P30542); test: Displacement of [3H]CCPA from human recombinant adenosine A1 receptor expressed in CHO cells at 1 uM by liquid scintillation counting analysis; assay type: cell-based
T4 sequence (whole entry): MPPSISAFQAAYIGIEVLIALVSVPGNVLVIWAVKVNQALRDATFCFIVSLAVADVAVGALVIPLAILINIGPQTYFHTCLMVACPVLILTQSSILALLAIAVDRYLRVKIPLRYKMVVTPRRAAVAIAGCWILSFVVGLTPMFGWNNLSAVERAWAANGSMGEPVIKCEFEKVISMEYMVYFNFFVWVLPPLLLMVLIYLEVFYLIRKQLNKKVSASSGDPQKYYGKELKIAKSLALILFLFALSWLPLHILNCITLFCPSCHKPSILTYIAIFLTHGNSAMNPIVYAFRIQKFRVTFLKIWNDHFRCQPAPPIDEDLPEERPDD

Adenosine receptor A3 = biological target: T5, Adenosine receptor A3 (Homo sapiens, UniProt P0DMS8); test: Displacement of [3H]PSB-11 from human recombinant adenosine A3 receptor expressed in CHO cells by liquid scintillation counting analysis; assay type: cell-based
T5 sequence (P0DMS8 whole entry): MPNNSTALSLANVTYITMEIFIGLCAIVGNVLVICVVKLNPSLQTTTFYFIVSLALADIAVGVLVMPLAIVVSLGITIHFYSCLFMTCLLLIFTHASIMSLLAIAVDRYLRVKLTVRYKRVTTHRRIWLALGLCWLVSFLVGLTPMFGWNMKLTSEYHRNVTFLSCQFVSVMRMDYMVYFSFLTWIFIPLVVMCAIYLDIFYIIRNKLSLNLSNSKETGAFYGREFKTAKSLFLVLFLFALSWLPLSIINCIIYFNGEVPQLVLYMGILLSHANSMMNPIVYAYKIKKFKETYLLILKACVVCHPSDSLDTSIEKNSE

Adenosine receptor A1 = biological target: T6, Adenosine receptor A1 (Homo sapiens, UniProt P30542); test: Displacement of [3H]CCPA from human recombinant adenosine A1 receptor expressed in CHO cells by liquid scintillation counting analysis; assay type: cell-based
T6 sequence (P30542 whole entry): T4 sequence (whole entry)

[5] = biological target: T7, Adenosine receptor A3 (Homo sapiens) (UniProt P0DMS8); test: Displacement of [3H]PSB-11 from human recombinant adenosine A3 receptor expressed in CHO cells at 1 uM by liquid scintillation counting analysis; assay type: cell-based
T7 sequence (whole entry): T5 sequence (P0DMS8 whole entry)

Histamine H3 receptor = Histamine H3 receptor (Homo sapiens, UniProt Q9Y5N1); test: Displacement of [3H] N-alpha methylhistamine from human recombinant histamine H3 receptor expressed in HEK293 cells measured after 90 mins; assay type: cell-based
SH-SY5Y = test: Cytotoxicity against human SH-SY5Y cells assessed as remaining cell viability at 1000 nM incubated for 24 hrs; assay type: functional

T2 sequence (P29274 whole entry): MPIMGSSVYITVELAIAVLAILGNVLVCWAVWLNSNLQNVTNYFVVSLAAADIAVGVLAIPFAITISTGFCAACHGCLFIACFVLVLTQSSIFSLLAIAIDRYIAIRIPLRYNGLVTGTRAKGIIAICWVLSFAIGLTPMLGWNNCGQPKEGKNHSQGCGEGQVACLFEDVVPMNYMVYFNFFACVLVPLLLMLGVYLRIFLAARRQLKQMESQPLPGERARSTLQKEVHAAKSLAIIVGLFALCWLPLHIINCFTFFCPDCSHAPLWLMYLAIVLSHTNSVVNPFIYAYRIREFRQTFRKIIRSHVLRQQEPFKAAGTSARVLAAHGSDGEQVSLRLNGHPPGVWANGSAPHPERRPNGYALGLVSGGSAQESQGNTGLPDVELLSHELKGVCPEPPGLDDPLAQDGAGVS
Sequence of Histamine H3 receptor (Q9Y5N1 whole entry): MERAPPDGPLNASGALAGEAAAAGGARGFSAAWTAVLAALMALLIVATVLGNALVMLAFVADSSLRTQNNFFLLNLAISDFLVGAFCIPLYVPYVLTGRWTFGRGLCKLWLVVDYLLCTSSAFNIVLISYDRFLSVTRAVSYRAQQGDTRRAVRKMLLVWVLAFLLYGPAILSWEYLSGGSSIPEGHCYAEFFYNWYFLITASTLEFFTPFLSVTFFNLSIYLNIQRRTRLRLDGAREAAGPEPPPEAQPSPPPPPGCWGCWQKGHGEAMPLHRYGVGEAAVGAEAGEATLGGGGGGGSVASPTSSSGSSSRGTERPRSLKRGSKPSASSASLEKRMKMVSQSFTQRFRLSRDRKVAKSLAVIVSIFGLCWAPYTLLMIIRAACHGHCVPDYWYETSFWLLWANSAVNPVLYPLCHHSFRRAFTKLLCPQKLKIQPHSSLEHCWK

| inhibition [1] | Ki (Adenosine receptor A2a [2]) | Ki (Adenosine receptor A2b) | inhibition (Adenosine receptor A2a [3]) | inhibition [4] | Ki (Adenosine receptor A3) | Ki (Adenosine receptor A1) | inhibition [5] | Ki (Histamine H3 receptor) | inhibition ([5]; filed as antagonist) | inhibition (Adenosine receptor A2a [3]; filed as antagonist) | Structure (SMILES) | Activity (SH-SY5Y) |
| --- | --- | --- | --- | --- | --- | --- | --- | --- | --- | --- | --- | --- |
| 0% | > 1000 nM | > 1000 nM | -3% | -5% | > 1000 nM | > 1000 nM | -2% | – | – | – | O=C(c1ccc(OCCCN2CCCCC2)cc1)C1CC1 | – |
| – | 35.5 nM | 331 nM | – | – | > 1000 nM | 133 nM | 33% | 0.28 nM | – | – | Nc1nc(-c2ccc(OCCCN3CCCCC3)cc2)c2c(n1)-c1ccccc1C2=O | – |
| – | 6.24 nM | 47.5 nM | – | – | 199 nM | 12.6 nM | – | 17 nM | – | – | Nc1nc(-c2ccccc2)c2c(n1)-c1cc(OCCCN3CCCC3)ccc1C2=O | – |
| – | 4.85 nM | 58.1 nM | – | – | 231 nM | 18.7 nM | – | 4.5 nM | – | – | Nc1nc(-c2ccccc2)c2c(n1)-c1cc(OCCCN3CCCCC3)ccc1C2 | >75% |
| 13% | 941 nM | > 1000 nM | – | 23% | > 1000 nM | > 1000 nM | – | 0.6 nM | 50% | – | Nc1nc(-c2ccc(OCCCN3CCCCC3)cc2)c2c(n1)-c1ccc(OCCCN3CCCCC3)cc1C2 | – |
| 8% | – | – | -1% | -6% | – | – | 3% | – | – | – | O=C(c1ccc(OCCCc2c[nH]cn2)cc1)C1CC1 | – |
| – | > 1000 nM | > 1000 nM | – | – | > 1000 nM | > 1000 nM | – | – | – | – | O=C(c1ccc(OCCCc2cnc[nH]2)cc1)C1CC1 [CIPROXIFAN] | – |
| 25% | > 1000 nM | > 1000 nM | – | – | > 1000 nM | 828 nM | 35% | 11 nM | – | 40% | Nc1nc(-c2ccccc2)c2c(n1)-c1ccc(OCCCN3CCCC3)cc1C2 | >75% |
